# According to paper PMC6934184, “Selective DNA-PKcs inhibition extends the therapeutic index of localized radiotherapy and chemotherapy” (The Journal of Clinical Investigation, 2019):
# Molecular target: T1, CDK2/cyclin A (Homo sapiens, UniProt P24941)
# T1 construct: purchased Thermo Fisher Scientific (Life Technologies) SelectScreen
# Test: SelectScreen Z'LYTE
# Assay type: biochemical
# Procedure, shortened: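 NU5455 was profiled across the SelectScreen Broad panel of kinase activity and binding assays. Z'LYTE reactions such as CSF1R ran at apparent Km ATP, while the Adapta CAMK1 assay used ATP listed as 10. Values are given as percent.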
compound,measurement,value
CN(C(=O)CN1CCOCC1)c1ccc2sc3c(-c4cccc5c(=O)cc(N6CC7CCC(C6)O7)oc45)cccc3c2c1 [NU5455],inhibition at 1 µM,2.7%
